ChEMBL document CHEMBL1201862, “PubChem BioAssay data set” (2004)
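Results reflect a 48-hour exposure of cells in 96-well plates to compound at five concentrations. At the GI50, growth is halved.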 Calls of active or inactive are those of the source. Cut-off read from the data, not from the text of the source: active = GI50 up to about 1.1 µM and inactive = higher.

What was measured:
Experiment in all cases: growth of human tumour cells (NCI), 48 h
RPMI-8226 = system: RPMI-8226
OVCAR-3 = system: OVCAR-3
MDA-N = system: MDA-N
CCRF-CEM = system: CCRF-CEM
NCI-H226 = system: NCI-H226
SN12C = system: SN12C
MDA-MB-231 = system: MDA-MB-231
HOP-62 = system: HOP-62
SW-620 = system: SW-620
SK-OV-3 = system: SK-OV-3
COLO 205 = system: COLO 205
TK-10 = system: TK-10
IGROV-1 = system: IGROV-1
A549 = system: A549
Malme-3M = system: Malme-3M
RXF 393 = system: RXF 393
SK-MEL-5 = system: SK-MEL-5
EKVX = system: EKVX
786-0 = system: 786-0
A498 = system: A498

Measured: GI50

O=C1CCCCCCCCCCC1CN1CCOCC1 (centres undefined)
inactive: RPMI-8226 > 100 µM | OVCAR-3 > 100 µM | MDA-N > 100 µM | CCRF-CEM > 100 µM | NCI-H226 > 100 µM | SN12C > 100 µM | MDA-MB-231 > 100 µM | HOP-62 > 100 µM | SW-620 > 100 µM | SK-OV-3 > 100 µM | COLO 205 > 100 µM | TK-10 > 100 µM | IGROV-1 > 100 µM | A549 > 100 µM | Malme-3M > 100 µM | RXF 393 > 100 µM | SK-MEL-5 13.9 µM | EKVX > 100 µM | 786-0 > 100 µM

Cc1ccc(S(=O)(=O)OC2CC(C(C)(C)C)CCC2c2ccccc2)cc1 (centres undefined)
inactive: RPMI-8226 17.9 µM | OVCAR-3 93.5 µM | MDA-N 99.8 µM | NCI-H226 > 100 µM | SN12C > 100 µM | MDA-MB-231 > 100 µM | HOP-62 53 µM | SW-620 > 100 µM | SK-OV-3 > 100 µM | COLO 205 > 100 µM | TK-10 > 100 µM | IGROV-1 72.8 µM | A498 > 100 µM | A549 40.6 µM | RXF 393 89.7 µM | SK-MEL-5 79.8 µM | EKVX > 100 µM | 786-0 > 100 µM

Cc1cc(/N=C/c2ccc(C#N)cc2)n(-c2ccccc2)n1
inactive: RPMI-8226 26.2 µM | OVCAR-3 38.9 µM | MDA-N 37.7 µM | CCRF-CEM 30.8 µM | NCI-H226 > 100 µM | SN12C 82.2 µM | MDA-MB-231 > 100 µM | HOP-62 68.9 µM | SW-620 49.4 µM | SK-OV-3 51.3 µM | COLO 205 31.3 µM | TK-10 > 100 µM | IGROV-1 68.9 µM | A549 64.9 µM | Malme-3M > 100 µM | RXF 393 > 100 µM | SK-MEL-5 36 µM | EKVX 94.8 µM | 786-0 80.5 µM

Cn1c2c(c3ccccc31)CCN1C(=O)CN(C(=O)C3CCCCC3)CC21 (centres undefined)
inactive: RPMI-8226 > 100 µM | OVCAR-3 > 100 µM | MDA-N > 100 µM | CCRF-CEM > 100 µM | NCI-H226 > 100 µM | SN12C > 100 µM | MDA-MB-231 > 100 µM | HOP-62 > 100 µM | SW-620 > 100 µM | SK-OV-3 > 100 µM | COLO 205 > 100 µM | TK-10 > 100 µM | IGROV-1 > 100 µM | A549 > 100 µM | Malme-3M > 100 µM | RXF 393 > 100 µM | SK-MEL-5 > 100 µM | EKVX > 100 µM | 786-0 > 100 µM

O=C1NNC(=O)c2ccccc2SSc2ccccc2C(=O)NNC(=O)c2ccccc2SSc2ccccc21
inactive: RPMI-8226 34 µM | OVCAR-3 16.9 µM | MDA-N 32 µM | CCRF-CEM 1.26 µM | NCI-H226 > 50 µM | SN12C 12.9 µM | MDA-MB-231 32.4 µM | HOP-62 21.4 µM | SW-620 8.59 µM | SK-OV-3 23.3 µM | COLO 205 17.2 µM | TK-10 36.9 µM | IGROV-1 9.25 µM | A549 19.5 µM | Malme-3M 15.6 µM | RXF 393 > 50 µM | SK-MEL-5 26.9 µM | EKVX 18.1 µM | 786-0 13.5 µM
